# From patent US10000577B2, “Treatment of otitis media” (Research Institute at Nationwide Children's Hospital, priority 2015, dated 2018)
# Entries after “also recorded” stand apart in the source; their conditions may differ.
# Test system: NHBE cells
# Assay: Inhibition of Arp2/3 - normal human bronchial epithelial cell (NHBE) infection model with GFP-expressing NTHI
# Format: cell-based
# Settings: 200 μM CK-636, 24 or 48 hours
# Description: Inhibition of Arp2/3—Normal human bronchial epithelial cell (NHBE) infection model: NHBE cells (Lonza, Walkersville, Md.) were seeded into 24-well plates containing sterile coverslips and grown in Bronchial Epithelial Cell Growth Medium (BEGM; Lonza, Walkersville, Md.) at 37° C. in a 5% CO2 atmosphere to near confluency. […] The next morning the colonies were re-suspended in brain heart infusion broth supplemented with 2 μg/ml heme and 2 μg/ml β-NAD (sBHI) and grown at 37° C. with shaking at 180 rpm until the cells were in mid-log phase (˜5 generations). Prior to infection, the BEGM was removed from the NHBE cells and replaced with BEGM that contained either 200 μM CK-636 (Sigma-Aldrich, St. Louis, Mo.), an inhibitor of Arp2/3 function, or 0.2% DMSO, the vehicle for CK-636. Strain 86-028NP(pGM1.1) was then added to the NHBE cells at a multiplicity of infection of 50 bacteria to one NHBE cell and incubated at 37° C. in a 5% CO2 atmosphere for one hour. The NHBE cells were then washed twice with DPBS before being placed back in BEGM that contained either 200 μM CK-636 or 0.2% DMSO. Cells were incubated at 37° C. in a 5% CO2 atmosphere for 24 or 48 hours. At each time point, cells were stained with WGA-Alexa Fluor 594, fixed in 4% paraformaldehyde (Electron Microscopy Sciences, Hatfield, Pa.) in DPBS, permeabilized with 0.1% Triton X-100 then stained with phalloidin-Alexa Fluor 350. […]
compound,measurement,setting,value
Cc1[nH]c2ccccc2c1CCNC(=O)c1cccs1 [CK-636],NTHI invasion / bacterial uptake into epithelial cells (fluorescent microscopy),"NTHI strain 86-028NP(pGM1.1), MOI 50, versus 0.2% DMSO vehicle",reduced NTHI invasion into epithelial cells; also recorded: increase in the number of extracellular bacteria indicating that bacterial uptake was reduced
same,"actin structure of NHBE cells (phalloidin staining, fluorescent microscopy)",NTHI-infected NHBE cells,gross morphological changes in actin structure
